Assay results taken from patent US20170210741A1, “Benzimidazole Compounds, Use As Inhibitors of WNT Signaling Pathway in Cancers, and Methods for Preparation Thereof” (Southern Research Institute, priority 2016, published 2017).
Like-named read-outs stand apart in the source and are kept apart here.

Tests used:
Type in all cases: cell-based
[1] = tested on: S2VP10; test: In vitro cell viability assay (Cell Titer Glo), pancreatic cancer S2VP10; conditions: 72 h
Protocol: (§1) Breast cancer SUM159 was obtained from Asterand and grown according to supplier's recommendation. All other cell lines were obtained from ATCC and cultured in standard cell culture conditions with complete cell culture medium containing 10% FBS.
(§2) Cancer cells were seeded into optically clear tissue culture-treated black 96-well plates (for adherent cells) or low-attachment 96-well plates (for cancer stem cells) at 2,000-5000 cells/50 μL of media per well. The cells were treated with Wnt inhibitors at 0.1 to 10 μM for 72 h. Cell viability was measured by the Cell Titer Glo Assay from Promega.

[2] = tested on: PANC-1; test: In vitro cell viability assay (Cell Titer Glo), pancreatic cancer PANC-1; conditions: Homo sapiens, 72 h
Protocol: as §1, §2

[3] = tested on: Wnt signaling; test: Wnt signaling reporter assay (Super8XTOPFlash luciferase) in LRP6-expressing HEK293 cells; conditions: Homo sapiens, 24 h treatment, luciferase normalized to β-galactosidase, read-out: IC50 (effects on Wnt signaling)
Protocol: HEK293 cells were plated into 24-well plates. After overnight culture, the cells were transiently transfected with 0.06 μg of the Super8XTOPFlash luciferase construct, 0.06 μg of β-galactosidase-expressing vector, and 0.06 μg of pCS-Myc-hLRP6 or control vector. After 24 h incubation, cells were treated with each individual compound in triplicate for 24 h. Cells were then lysed, and the luciferase and β-galactosidase activities were determined by the luciferase assay system (Promega) and β-galactosidase assay system (Promega), respectively. The luciferase activity was normalized to the β-galactosidase activity.
Table 2 below illustrates the effects of the disclosed compounds on Wnt signaling in LRP6-expressing HEK293 cells.

[4] = tested on: Suit-2; test: In vitro cell viability assay (Cell Titer Glo), pancreatic cancer Suit-2; conditions: 72 h
Protocol: as §1, §2

[5] = tested on: HCT116; test: In vitro cell viability assay (Cell Titer Glo), colorectal cancer HCT116; conditions: Homo sapiens, HCT-116, 72 h
Protocol: as §1, §2
(§3) Table 4 below illustrates the effects of the disclosed compounds on cell viability of colorectal cancer cell lines.

[6] = tested on: HT-29; test: In vitro cell viability assay (Cell Titer Glo), colorectal cancer HT-29; conditions: Homo sapiens, 72 h
Protocol: as §1, §2, §3

[7] = tested on: MDA-MB-468; test: In vitro cell viability assay (Cell Titer Glo), breast cancer MDA-MB-468; conditions: Homo sapiens, 72 h
Protocol: as §1, §2
(§4) Table 5 below illustrates the effects of the disclosed compounds on cell viability of breast cancer cell lines.

[8] = tested on: 2LMP; test: In vitro cell viability assay (Cell Titer Glo), breast cancer 2LMP; conditions: 72 h
Protocol: as §1, §2, §4

[9] = tested on: SUM159; test: In vitro cell viability assay (Cell Titer Glo), breast cancer SUM159; conditions: 72 h
Protocol: as §1, §2, §4

[10] = tested on: HCC1143; test: In vitro cell viability assay (Cell Titer Glo), breast cancer HCC1143; conditions: Homo sapiens, 72 h
Protocol: as §1, §2, §4

[11] = tested on: L3.6pl; test: In vitro cell viability assay (Cell Titer Glo), pancreatic cancer L3.6pl; conditions: Homo sapiens, 72 h
Protocol: as §1, §2

[12] = S2VP10, CSC enriching serum free medium, non-adherent plates, read-out: Cell viability (IC50) S2VP10 CSC
[13] = S2VP10, adherent, complete medium 10% FBS, read-out: Cell viability (IC50) S2VP10 Adherent
[14] = PANC-1, adherent, complete medium 10% FBS, read-out: Cell viability (IC50) PANC-1 Adherent
[15] = PANC-1, cancer stem cell (CSC) enriching serum free medium, non-adherent plates, read-out: Cell viability (IC50) PANC-1 CSC
[16] = Suit-2, CSC enriching serum free medium, non-adherent plates, read-out: Cell viability (IC50) Suit-2 CSC
[17] = Suit-2, adherent, complete medium 10% FBS, read-out: Cell viability (IC50) Suit-2 Adherent
[18] = HCT116, CSC conditions, read-out: Cell viability (IC50) HCT116 CSC
[19] = HCT116, adherent, read-out: Cell viability (IC50) HCT116 Adherent
[20] = HT-29, CSC conditions, read-out: Cell viability (IC50) HT-29 CSC
[21] = HT-29, adherent, read-out: Cell viability (IC50) HT-29 Adherent
[22] = MDA-MB-468, CSC conditions, read-out: Cell viability (IC50) MDA-MB-468 CSC
[23] = MDA-MB-468, adherent, read-out: Cell viability (IC50) MDA-MB-468 Adherent
[24] = CSC conditions, read-out: Cell viability (IC50) 2LMP CSC
[25] = adherent, read-out: Cell viability (IC50) 2LMP Adherent
[26] = SUM159, CSC conditions, read-out: Cell viability (IC50) SUM159 CSC
[27] = SUM159, adherent, read-out: Cell viability (IC50) SUM159 Adherent
[28] = HCC1143, CSC conditions, read-out: Cell viability (IC50) HCC1143 CSC
[29] = HCC1143, adherent, read-out: Cell viability (IC50) HCC1143 Adherent
[30] = CSC enriching serum free medium, non-adherent plates, read-out: Cell viability (IC50) L3.6pl CSC
[31] = adherent, complete medium 10% FBS, read-out: Cell viability (IC50) L3.6pl Adherent

## Oc1ccc(F)cc1-c1nc2c(Cl)cc(Cl)cc2[nH]1 [Compound 1, 2-(4,6-Dichloro-1H-benzo[d]imidazol-2-yl)-4-fluorophenol]
[1]; [12]
  IC50: 0.92 µM
[1]; [13]
  IC50: 1.62 µM
[2]; [14]
  IC50: 1.74 µM
[2]; [15]
  IC50: 0.21 µM
[3]
  IC50: 1.34 µM
[4]; [16]
  IC50: 2.84 µM
[4]; [17]
  IC50: 9.13 µM

## Oc1ccc(F)cc1-c1nc2cc(Cl)c(F)cc2[nH]1 [Compound 3, 2-(5-Chloro-6-fluoro-1H-benzo[d]imidazol-2-yl)-4-fluorophenol]
[1]; [12]
  IC50: 0.33 µM
[1]; [13]
  IC50: 1.1 µM
[2]; [14]
  IC50: 2.32 µM
[2]; [15]
  IC50: 0.41 µM
[5]; [18]
  IC50: 0.18 µM
[5]; [19]
  IC50: 1.61 µM
[3]
  IC50: 2.8 µM
[4]; [16]
  IC50: 1.81 µM
[4]; [17]
  IC50: 3.76 µM
[6]; [20]
  IC50: 3.09 µM
[6]; [21]
  IC50: 6.47 µM

## Oc1c(Cl)cccc1-c1nc2cc(C(F)(F)F)ccc2[nH]1 [Compound 5, 2-Chloro-6-(5-(trifluoromethyl)-1H-benzo[d]imidazol-2-yl)phenol]
[1]; [12]
  IC50: 0.21 µM
[1]; [13]
  IC50: 1.04 µM
[7]; [22]
  IC50: 0.17 µM
[7]; [23]
  IC50: 1.41 µM
[8]; [24]
  IC50: 0.92 µM
[8]; [25]
  IC50: 1.15 µM
[2]; [14]
  IC50: 1.33 µM
[2]; [15]
  IC50: 0.18 µM
[9]; [26]
  IC50: 0.34 µM
[9]; [27]
  IC50: 0.5 µM
[10]; [28]
  IC50: 0.5 µM
[10]; [29]
  IC50: 1.19 µM
[3]
  IC50: 2.77 µM
[4]; [16]
  IC50: 1.15 µM
[4]; [17]
  IC50: 3.16 µM

## FC(F)(F)Oc1ccc(-c2nc3cc(Cl)c(Cl)cc3[nH]2)cc1 [Compound 6, 5,6-Dichloro-2-(4-(trifluoromethoxy)phenyl)-1H-benzo[d]imidazole]
[1]; [12]
  IC50: 0.59 µM
[1]; [13]
  IC50: 2.57 µM
[7]; [22]
  IC50: 0.33 µM
[7]; [23]
  IC50: 3.83 µM
[8]; [24]
  IC50: 2.9 µM
[8]; [25]
  IC50: 3.84 µM
[2]; [14]
  IC50: 3.44 µM
[2]; [15]
  IC50: 0.57 µM
[5]; [18]
  IC50: 1.61 µM
[5]; [19]
  IC50: 3.84 µM
[9]; [26]
  IC50: 1.17 µM
[9]; [27]
  IC50: 1.67 µM
[10]; [28]
  IC50: 1.3 µM
[10]; [29]
  IC50: 3.18 µM
[11]; [30]
  IC50: 0.93 µM
[3]
  IC50: 0.19 µM
[4]; [16]
  IC50: 0.56 µM
[4]; [17]
  IC50: 2.12 µM
[6]; [20]
  IC50: 0.86 µM
[6]; [21]
  IC50: 4.38 µM

## FC(F)(F)c1ccc(-c2nc3c(Cl)cc(Cl)cc3[nH]2)cc1 [Compound 7, 4,6-Dichloro-2-(4-(trifluoromethyl)phenyl)-1H-benzo[d]imidazole]
[1]; [12]
  IC50: 0.77 µM
[1]; [13]
  IC50: 3.88 µM
[7]; [22]
  IC50: 0.16 µM
[7]; [23]
  IC50: 1.29 µM
[8]; [24]
  IC50: 13 µM
[8]; [25]
  IC50: 16.8 µM
[2]; [14]
  IC50: 4.47 µM
[2]; [15]
  IC50: 0.3 µM
[9]; [26]
  IC50: 0.9 µM
[9]; [27]
  IC50: 1.13 µM
[10]; [28]
  IC50: 0.7 µM
[10]; [29]
  IC50: 4.5 µM
[11]; [30]
  IC50: 0.66 µM
[11]; [31]
  IC50: 0.57 µM
[3]
  IC50: 6.01 µM
[4]; [16]
  IC50: 0.61 µM
[4]; [17]
  IC50: 5.21 µM

## FC(F)(F)Oc1ccc(-c2nc3c(Cl)cc(Cl)cc3[nH]2)cc1 [Compound 8, 4,6-Dichloro-2-(4-(trifluoromethoxy)phenyl)-1H-benzo[d]imidazole]
[1]; [12]
  IC50: 0.77 µM
[1]; [13]
  IC50: 4.86 µM
[2]; [14]
  IC50: > 10 µM
[2]; [15]
  IC50: 1.06 µM
[11]; [30]
  IC50: 0.62 µM
[11]; [31]
  IC50: 1.19 µM
[3]
  IC50: 7.92 µM
[4]; [16]
  IC50: 0.84 µM
[4]; [17]
  IC50: 8.92 µM

## Fc1cc2[nH]c(-c3ccc(N4CCCC4)cc3)nc2cc1Cl [Compound 31, 5-chloro-6-fluoro-2-(4-(pyrrolidin-1-yl)phenyl)-1H-benzo[d]imidazole]
[1]; [12]
  IC50: 0.75 µM
[1]; [13]
  IC50: 0.51 µM
[5]; [18]
  IC50: 0.16 µM
[5]; [19]
  IC50: 0.58 µM
[3]
  IC50: 0.33 µM
[4]; [16]
  IC50: 0.94 µM
[4]; [17]
  IC50: 0.95 µM
[6]; [20]
  IC50: 0.04 µM
[6]; [21]
  IC50: 0.59 µM
